{"source": "patent US20160235727A1", "about": "“NOVEL PYRROLIDINE DERIVED BETA 3 ADRENERGIC RECEPTOR AGONISTS” (Merck Sharp & Dohme Corp., priority 2013, published 2016)", "molecular_target": "T1, human β3-AR (Homo sapiens, UniProt P13945)", "T1 construct": "expressed in transfected cells; host or cells: CHO (Chinese hamster ovary) cells, stably transfected", "T1 sequence (P13945 whole entry)": "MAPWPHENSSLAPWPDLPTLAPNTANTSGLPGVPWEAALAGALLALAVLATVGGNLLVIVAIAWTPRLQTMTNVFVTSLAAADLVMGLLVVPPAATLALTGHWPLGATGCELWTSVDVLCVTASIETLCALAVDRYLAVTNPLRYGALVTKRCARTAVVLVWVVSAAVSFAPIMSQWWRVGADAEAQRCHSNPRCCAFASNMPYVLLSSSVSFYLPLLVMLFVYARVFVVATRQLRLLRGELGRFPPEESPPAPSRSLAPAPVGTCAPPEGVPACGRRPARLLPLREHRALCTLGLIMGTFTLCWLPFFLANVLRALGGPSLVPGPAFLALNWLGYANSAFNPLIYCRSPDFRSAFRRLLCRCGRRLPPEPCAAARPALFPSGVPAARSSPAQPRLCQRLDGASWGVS", "assay": "cAMP functional agonist assay (LANCE TR-FRET) in CHO cells expressing cloned human β3-AR", "format": "cell-based", "settings": "for EC50: CHO cells stably expressing cloned human β3-adrenoceptor, cAMP release, read-out: Human β3-AR Agonism EC50; for Fold drop in potency vs. 2-chloropyridine analog: EC50 of comparative example divided by EC50 of corresponding 2-chloropyridine compound; for Human β3-AR Agonist Activity (%): percent maximum activation relative to isoproterenol", "procedure": "The ability of compounds to activate the human β3-AR receptor was measured using a CHO cell line stably expressing the cloned human β1-, β2-, and β3-adrenoceptors (β-AR). […] To quantify the amount of cAMP released following β-AR activation, the LANCE cAMP kit (Perking Elmer), a time-resolved fluorescence resonance energy transfer immunoassay, was used. Compounds were serially diluted in DMSO and an aliquot added to either 384-well or 96-well micro titer plates in assay buffer (5 mM HEPES, 0.1% BSA in Hank's Balanced Salt Solution). […] Following 30 min incubation at room temperature, the cells were lysed by the addition of LANCE detection buffer which contained a europium-labeled cAMP tracer. Fluorescence was measured following one hour incubation at room temperature using a Perking Elmer Envision plate reader, exciting at 340 nm and measuring emission at 615 nm and 665 nm. For each assay, a cAMP standard curve was included and used to convert fluorescence readings directly to cAMP amounts. The values were then normalized to isoproterenol, a known full agonist of β-AR, which was titrated in every assay and the EC50 determined using a custom in-house data analysis package. Along with EC50, the percent maximum activation relative to isoproterenol is reported.\nThe cAMP production is measured using a homogenous time-resolved fluorescence resonance energy transfer immunoassay (LANCE™, Perkin Elmer) according to the manufacture's instructions. Chinese hamster ovary (CHO) cells, stably transfected with the cloned β-adrenergic receptor (β1, β2 or β3) are harvested after 3 days of subculturing. Harvesting of cells is done with Enzyme-free Dissociation Media (Specialty Media). Cells are then counted and resuspended in assay buffer (Hank's Balanced salt solution supplemented with 5 mM HEPES, […]) containing a phosphodiesterase inhibitor (IBMX, 0.6 mM). The reaction is initiated by mixing 6,000 cells in 6 μL with 6 μL Alexa Fluor labeled cAMP antibody (LANCE™ kit) which is then added to an assay well containing 12 μL of compound (diluted in assay buffer to 2× final concentration). The reaction proceeds for 30 minutes at RT and is terminated by the addition of 24 ul detection buffer (LANCE™ kit). The assay plate is then incubated for 1 h at RT and time-resolved fluorescence measured on a Perkin Elmer Envision reader or equivalent. The unknown cAMP level is determined by comparing fluorescence levels to a cAMP standard curve.\nThe non-selective, full agonist β-adrenergic ligand isoproterenol is used at all three receptors to determine maximal stimulation. […] Data are analyzed using Microsoft Excel and Graphpad Prism or an internally developed data analysis software package. […]", "data": [{"smiles": "Cc1cc(CN(C)C(=O)c2ccc(C[C@@H]3CC[C@H]([C@H](O)c4ccc(Cl)cc4)N3)cc2)n[nH]1", "note": "[Example 4-G, 4-(((2S,5R)-5-((R)-(4-chlorophenyl)(hydroxy)methyl)pyrrolidin-2-yl)methyl)-N-methyl-N-((5-methyl-1H-pyrazol-3-yl)methyl)benzamide]", "values": [{"measurement": "EC50", "result": 4, "unit": "nM"}, {"measurement": "Fold drop in potency vs. 2-chloropyridine analog", "result": 0.8, "unit": "fold"}, {"measurement": "Human β3-AR Agonist Activity (%)", "result": 95, "unit": "%"}]}, {"smiles": "Cc1cc(CN(C)C(=O)c2ccc(C[C@@H]3CC[C@H]([C@H](O)c4ccc(F)nc4)N3)cc2)n[nH]1", "note": "[Example 4-Q, 4-(((2S,5R)-5-((R)-(6-fluoropyridin-3-yl)(hydroxy)methyl)pyrrolidin-2-yl)methyl)-N-methyl-N-((5-methyl-1H-pyrazol-3-yl)methyl)benzamide]", "values": [{"measurement": "EC50", "result": 78, "unit": "nM"}, {"measurement": "Fold drop in potency vs. 2-chloropyridine analog", "result": 14.4, "unit": "fold"}, {"measurement": "Human β3-AR Agonist Activity (%)", "result": 106, "unit": "%"}]}, {"smiles": "Cc1cc(CN(C)C(=O)c2ccc(C[C@@H]3CC[C@H]([C@H](O)c4cncc(F)c4)N3)cc2)[nH]n1", "note": "[Example 4-R, 4-(((2S,5R)-5-((R)-(5-fluoropyridin-3-yl)(hydroxy)methyl)pyrrolidin-2-yl)methyl)-N-methyl-N-((5-methyl-1H-pyrazol-3-yl)methyl)benzamide]", "values": [{"measurement": "EC50", "result": 45, "unit": "nM"}, {"measurement": "Fold drop in potency vs. 2-chloropyridine analog", "result": 8.3, "unit": "fold"}, {"measurement": "Human β3-AR Agonist Activity (%)", "result": 101, "unit": "%"}]}, {"smiles": "CCC(c1cc(C)n[nH]1)N(C)C(=O)c1ccc(C[C@@H]2CC[C@H]([C@H](O)c3ccc(Cl)nc3)N2)cc1", "note": "(stereo partly drawn) [Example 5-A, 4-(((2S,5R)-5-((R)-(6-chloropyridin-3-yl)(hydroxy)methyl)pyrrolidin-2-yl)methyl)-N-methyl-N-(1-(5-methyl-1H-pyrazol-3-yl)propyl)benzamide]", "values": [{"measurement": "EC50", "result": 2, "unit": "nM"}, {"measurement": "Human β3-AR Agonist Activity (%)", "result": 102, "unit": "%"}]}, {"smiles": "CCC(c1cc(C)[nH]n1)N(C)C(=O)c1ccc(C[C@@H]2CC[C@H]([C@H](O)c3cccnc3)N2)cc1", "note": "(stereo partly drawn) [Example 5-H, 4-(((2S,5R)-5-((R)-hydroxy(pyridin-3-yl)methyl)pyrrolidin-2-yl)methyl)-N-methyl-N-(1-(5-methyl-1H-pyrazol-3-yl)propyl)benzamide]", "values": [{"measurement": "EC50", "result": 3, "unit": "nM"}, {"measurement": "Fold drop in potency vs. 2-chloropyridine analog", "result": 1.6, "unit": "fold"}, {"measurement": "Human β3-AR Agonist Activity (%)", "result": 106, "unit": "%"}]}, {"smiles": "Cc1cc(C(Cc2ccccc2)N(C)C(=O)c2ccc(C[C@@H]3CC[C@H]([C@H](O)c4ccc(Cl)nc4)N3)cc2)[nH]n1", "note": "(stereo partly drawn) [Example 6-A, 4-(((2S,5R)-5-((R)-(6-chloropyridin-3-yl)(hydroxy)methyl)pyrrolidin-2-yl)methyl)-N-methyl-N-(1-(5-methyl-1H-pyrazol-3-yl)-2-phenylethyl)benzamide]", "values": [{"measurement": "EC50", "result": 3, "unit": "nM"}, {"measurement": "Human β3-AR Agonist Activity (%)", "result": 93, "unit": "%"}]}, {"smiles": "Cc1cc(C(Cc2ccccc2)N(C)C(=O)c2ccc(C[C@@H]3CC[C@H]([C@H](O)c4cccnc4)N3)cc2)[nH]n1", "note": "(stereo partly drawn) [Example 6-H, 4-(((2S,5R)-5-((R)-hydroxy(pyridin-3-yl)methyl)pyrrolidin-2-yl)methyl)-N-methyl-N-(1-(5-methyl-1H-pyrazol-3-yl)-2-phenylethyl)benzamide]", "values": [{"measurement": "EC50", "result": 7, "unit": "nM"}, {"measurement": "Fold drop in potency vs. 2-chloropyridine analog", "result": 2.4, "unit": "fold"}, {"measurement": "Human β3-AR Agonist Activity (%)", "result": 92, "unit": "%"}]}, {"smiles": "CC(C)c1cc(CN(C)C(=O)c2ccc(C[C@@H]3CC[C@H]([C@H](O)c4ccc(Cl)nc4)N3)cc2)n[nH]1", "note": "[Example 7-A, 4-(((2S,5R)-5-((R)-(6-chloropyridin-3-yl)(hydroxy)methyl)pyrrolidin-2-yl)methyl)-N-((5-isopropyl-1H-pyrazol-3-yl)methyl)-N-methylbenzamide]", "values": [{"measurement": "EC50", "result": 59, "unit": "nM"}, {"measurement": "Human β3-AR Agonist Activity (%)", "result": 95, "unit": "%"}]}, {"smiles": "CC(C)c1cc(CN(C)C(=O)c2ccc(C[C@@H]3CC[C@H]([C@H](O)c4ccccc4)N3)cc2)n[nH]1", "note": "[Example 7-B, 4-(((2S,5R)-5-((R)-hydroxy(phenyl)methyl)pyrrolidin-2-yl)methyl)-N-((5-isopropyl-1H-pyrazol-3-yl)methyl)-N-methylbenzamide]", "values": [{"measurement": "EC50", "result": 188, "unit": "nM"}, {"measurement": "Fold drop in potency vs. 2-chloropyridine analog", "result": 3.2, "unit": "fold"}, {"measurement": "Human β3-AR Agonist Activity (%)", "result": 110, "unit": "%"}]}, {"smiles": "CN(Cc1cc(C2CC2)[nH]n1)C(=O)c1ccc(C[C@@H]2CC[C@H]([C@H](O)c3ccc(Cl)nc3)N2)cc1", "note": "[Example 8-A, 4-(((2S,5R)-5-((R)-(6-chloropyridin-3-yl)(hydroxy)methyl)pyrrolidin-2-yl)methyl)-N-((5-cyclopropyl-1H-pyrazol-3-yl)methyl)-N-methylbenzamide]", "values": [{"measurement": "EC50", "result": 20, "unit": "nM"}, {"measurement": "Human β3-AR Agonist Activity (%)", "result": 103, "unit": "%"}]}, {"smiles": "CN(Cc1cc(C2CC2)[nH]n1)C(=O)c1ccc(C[C@@H]2CC[C@H]([C@H](O)c3ccccc3)N2)cc1", "note": "[Example 8-B, N-((5-cyclopropyl-1H-pyrazol-3-yl)methyl)-4-(((2S,5R)-5-((R)-hydroxy(phenyl)methyl)pyrrolidin-2-yl)methyl)-N-methylbenzamide]", "values": [{"measurement": "EC50", "result": 39, "unit": "nM"}, {"measurement": "Fold drop in potency vs. 2-chloropyridine analog", "result": 2.0, "unit": "fold"}, {"measurement": "Human β3-AR Agonist Activity (%)", "result": 103, "unit": "%"}]}, {"smiles": "COCc1cc(CN(C)C(=O)c2ccc(C[C@@H]3CC[C@H]([C@H](O)c4ccc(Cl)nc4)N3)cc2)n[nH]1", "note": "[Example 9-A, 4-(((2S,5R)-5-((R)-(6-chloropyridin-3-yl)(hydroxy)methyl)pyrrolidin-2-yl)methyl)-N-((5-(methoxymethyl)-1H-pyrazol-3-yl)methyl)-N-methylbenzamide]", "values": [{"measurement": "EC50", "result": 3, "unit": "nM"}, {"measurement": "Human β3-AR Agonist Activity (%)", "result": 93, "unit": "%"}]}, {"smiles": "COCc1cc(CN(C)C(=O)c2ccc(C[C@@H]3CC[C@H]([C@H](O)c4ccccc4)N3)cc2)n[nH]1", "note": "[Example 9-B, 4-(((2S,5R)-5-((R)-hydroxy(phenyl)methyl)pyrrolidin-2-yl)methyl)-N-((5-(methoxymethyl)-1H-pyrazol-3-yl)methyl)-N-methylbenzamide]", "values": [{"measurement": "EC50", "result": 15, "unit": "nM"}, {"measurement": "Fold drop in potency vs. 2-chloropyridine analog", "result": 5.5, "unit": "fold"}, {"measurement": "Human β3-AR Agonist Activity (%)", "result": 102, "unit": "%"}]}, {"smiles": "COCc1cc(CN(C)C(=O)c2ccc(C[C@@H]3CC[C@H]([C@H](O)c4ccc(OC(F)F)cc4)N3)cc2)n[nH]1", "note": "[Example 9-E, 4-(((2S,5R)-5-((R)-(4-(difluoromethoxy)phenyl)(hydroxy)methyl)pyrrolidin-2-yl)methyl)-N-((5-(methoxymethyl)-1H-pyrazol-3-yl)methyl)-N-methylbenzamide]", "values": [{"measurement": "EC50", "result": 108, "unit": "nM"}, {"measurement": "Fold drop in potency vs. 2-chloropyridine analog", "result": 39.6, "unit": "fold"}, {"measurement": "Human β3-AR Agonist Activity (%)", "result": 76, "unit": "%"}]}, {"smiles": "COCc1cc(CN(C)C(=O)c2ccc(C[C@@H]3CC[C@H]([C@H](O)c4ccc(Cl)cc4)N3)cc2)n[nH]1", "note": "[Example 9-G, 4-(((2S,5R)-5-((R)-(4-chlorophenyl)(hydroxy)methyl)pyrrolidin-2-yl)methyl)-N-((5-(methoxymethyl)-1H-pyrazol-3-yl)methyl)-N-methylbenzamide]", "values": [{"measurement": "EC50", "result": 4, "unit": "nM"}, {"measurement": "Fold drop in potency vs. 2-chloropyridine analog", "result": 1.6, "unit": "fold"}, {"measurement": "Human β3-AR Agonist Activity (%)", "result": 97, "unit": "%"}]}, {"smiles": "COCc1cc(CN(C)C(=O)c2ccc(C[C@@H]3CC[C@H]([C@H](O)c4cccnc4)N3)cc2)n[nH]1", "note": "[Example 9-H, 4-(((2S,5R)-5-((R)-hydroxy(pyridin-3-yl)methyl)pyrrolidin-2-yl)methyl)-N-((5-(methoxymethyl)-1H-pyrazol-3-yl)methyl)-N-methylbenzamide]", "values": [{"measurement": "EC50", "result": 104, "unit": "nM"}, {"measurement": "Fold drop in potency vs. 2-chloropyridine analog", "result": 38.1, "unit": "fold"}, {"measurement": "Human β3-AR Agonist Activity (%)", "result": 101, "unit": "%"}]}, {"smiles": "CN(Cc1cc(C(F)(F)F)[nH]n1)C(=O)c1ccc(C[C@@H]2CC[C@H]([C@H](O)c3ccc(Cl)nc3)N2)cc1", "note": "[Example 10-A, 4-(((2S,5R)-5-((R)-(6-chloropyridin-3-yl)(hydroxy)methyl)pyrrolidin-2-yl)methyl)-N-methyl-N-((5-(trifluoromethyl)-1H-pyrazol-3-yl)methyl)benzamide]", "values": [{"measurement": "EC50", "result": 2, "unit": "nM"}, {"measurement": "Human β3-AR Agonist Activity (%)", "result": 96, "unit": "%"}]}, {"smiles": "CN(Cc1cc(C(F)(F)F)[nH]n1)C(=O)c1ccc(C[C@@H]2CC[C@H]([C@H](O)c3ccccc3)N2)cc1", "note": "[Example 10-B, 4-(((2S,5R)-5-((R)-hydroxy(phenyl)methyl)pyrrolidin-2-yl)methyl)-N-methyl-N-((5-(trifluoromethyl)-1H-pyrazol-3-yl)methyl)benzamide]", "values": [{"measurement": "EC50", "result": 5, "unit": "nM"}, {"measurement": "Fold drop in potency vs. 2-chloropyridine analog", "result": 3.2, "unit": "fold"}, {"measurement": "Human β3-AR Agonist Activity (%)", "result": 110, "unit": "%"}]}, {"smiles": "CN(Cc1cc(C(F)(F)F)[nH]n1)C(=O)c1ccc(C[C@@H]2CC[C@H]([C@H](O)c3cccnc3)N2)cc1", "note": "[Example 10-H, 4-(((2S,5R)-5-((R)-hydroxy(pyridin-3-yl)methyl)pyrrolidin-2-yl)methyl)-N-methyl-N-((5-(trifluoromethyl)-1H-pyrazol-3-yl)methyl)benzamide]", "values": [{"measurement": "EC50", "result": 22, "unit": "nM"}, {"measurement": "Fold drop in potency vs. 2-chloropyridine analog", "result": 13.9, "unit": "fold"}, {"measurement": "Human β3-AR Agonist Activity (%)", "result": 98, "unit": "%"}]}]}
